Values quoted from earlier work in patent US6355670B1, “Use of estrogen antagonists and estrogen agonists in inhibiting pathological conditions” (Pfizer, Inc., priority 1996, dated 2002).

Experiments:
[1] = system: rats
[2] = in vivo or in vitro
[3] = biological target: T1, estrogen receptor (Homo sapiens, UniProt P03372); conditions: higher, relative to tamoxifen
T1 sequence (P03372 1-595): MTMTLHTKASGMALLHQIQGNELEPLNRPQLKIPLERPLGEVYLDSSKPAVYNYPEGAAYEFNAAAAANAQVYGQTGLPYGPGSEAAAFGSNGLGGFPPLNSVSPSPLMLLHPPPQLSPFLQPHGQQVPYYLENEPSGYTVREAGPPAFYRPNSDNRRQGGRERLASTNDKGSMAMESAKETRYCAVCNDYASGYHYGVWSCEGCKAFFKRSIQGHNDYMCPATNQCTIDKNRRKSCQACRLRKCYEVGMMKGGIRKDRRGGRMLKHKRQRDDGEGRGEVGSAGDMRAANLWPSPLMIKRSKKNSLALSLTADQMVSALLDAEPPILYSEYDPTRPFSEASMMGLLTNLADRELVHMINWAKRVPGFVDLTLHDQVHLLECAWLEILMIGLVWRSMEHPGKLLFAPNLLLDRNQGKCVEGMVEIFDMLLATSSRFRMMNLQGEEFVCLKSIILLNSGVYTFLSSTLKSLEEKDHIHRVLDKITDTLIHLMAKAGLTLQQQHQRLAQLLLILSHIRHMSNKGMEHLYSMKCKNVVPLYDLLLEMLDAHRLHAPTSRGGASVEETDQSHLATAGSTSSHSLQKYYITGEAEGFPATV

[4] = system: intact or ovariectomized female rats
[5] = system: streptozotocin diabetic rats; conditions: implanted

CC/C(=C(\c1ccccc1)c1ccc(OCCN(C)C)cc1)c1ccccc1 [tamoxifen]
liver tumors [1]: causes liver tumors in rats

CC/C(=C(/c1ccc(OCCN(C)C)cc1)c1cccc(O)c1)c1ccccc1 [droloxifene, 3-hydroxytamoxifen]
carcinogenic or mutagenic effects [2]: devoid of in vivo or in vitro carcinogenic or nutagenic effects
binding affinity to the estrogen receptor compared to tamoxifen [3]: 10-60 fold

C[C@]12CC[C@H]3[C@@H](CCC4=CC(=O)CC[C@@]43C)[C@@H]1CC[C@@H]2O [testosterone]
insulin resistance [4]: marked insulin resistance
ability of residual insulin to maintain glycemic control [5]: antagonized the ability of residual insulin to maintain glycemic control
